Like-named read-outs stand apart in the source and are kept apart here.
What was measured:
Assay type in all cases: cell-based
Enterobacter aerogenes = experiment: MIC and MBC, broth microdilution (Example 4, Table 3)
Klebsiella pneumoniae = experiment: as above
Citrobacter freundii = experiment: as above; settings: Citrobacter freundii CDC-157 (NDM-1)
[1] = tested on: Enterobacter cloacae complex; experiment: as above; settings: Enterobacter cloacae complex CDC-164 (NMC-A)
Escherichia coli = experiment: as above
Fusobacterium spp. = experiment: MIC, agar dilution, anaerobic bacteria (Example 9, Tables 20, 25)
[2] = Escherichia coli CDC-150 (NDM-5)

CC(C)(O/N=C(\C(=O)N[C@@H]1C(=O)N2C(C(=O)[O-])=C(C[n+]3ccccc3)CS[C@H]12)c1csc(N)n1)C(=O)O [CAZ, ceftazidime]
>128 µg/mL: MIC (Klebsiella pneumoniae; Klebsiella pneumoniae CDC-505 (NDM-1)) | MIC (Klebsiella pneumoniae; Klebsiella pneumoniae KUB3607 (IMP-1)) | MBC (Escherichia coli; [2]) | MIC (Escherichia coli; [2])
1: MBC/MIC ratio (Enterobacter aerogenes; Enterobacter aerogenes CDC-161 (IMP-4)) | MBC/MIC ratio (Klebsiella pneumoniae; Klebsiella pneumoniae ATCC BAA-2524 (OXA-48)) | MBC/MIC ratio [1] | MBC/MIC ratio (Escherichia coli)
32 µg/mL: MBC [1] | MIC [1]
128 µg/mL: MBC (Enterobacter aerogenes; Klebsiella aerogenes) | MIC (Enterobacter aerogenes; Klebsiella aerogenes) | MBC (Escherichia coli; ATCCBAA2340, Escherichia coli ATCC BAA-2340 (KPC-3), read-out: MBC) | MIC (Escherichia coli; Escherichia coli, ATCCBAA2340)
> 128 µg/mL: MIC (Klebsiella pneumoniae; ATCCBAA2470, Klebsiella pneumoniae ATCC BAA-2470 (NDM-1), read-out: MIC) | MIC (Klebsiella pneumoniae; Klebsiella pneumoniae) | MIC (Klebsiella pneumoniae; Klebsiella pneumoniae NCTC13440 (VIM-1), read-out: MIC) | MIC (Klebsiella pneumoniae; Klebsiella pneumoniae, ATCCBAA2344) | MBC (Klebsiella pneumoniae; Klebsiella pneumoniae, ATCCBAA2344, Klebsiella pneumoniae ATCC BAA-2344 (KPC-2)) | MBC (Klebsiella pneumoniae; Klebsiella pneumoniae, ATCCBAA2470, Klebsiella pneumoniae ATCC BAA-2470 (NDM-1)) | MBC (Klebsiella pneumoniae; Klebsiella pneumoniae, Klebsiella pneumoniae CDC-112 (KPC-3)) | MBC (Klebsiella pneumoniae; Klebsiella pneumoniae, Klebsiella pneumoniae CDC-505 (NDM-1)) | MBC (Klebsiella pneumoniae; Klebsiella pneumoniae, Klebsiella pneumoniae KUB3607 (IMP-1)) | MBC (Klebsiella pneumoniae; Klebsiella pneumoniae, NCTC13440, Klebsiella pneumoniae NCTC13440 (VIM-1)) | MBC (Citrobacter freundii) | MIC (Citrobacter freundii) | MBC (Escherichia coli; ATCCBAA2469, Escherichia coli ATCC BAA-2469 (NDM-1), read-out: MBC) | MIC (Escherichia coli; ATCCBAA2469, Escherichia coli ATCC BAA-2469 (NDM-1), read-out: MIC) | MBC (Escherichia coli; Escherichia coli CDC-162 (NDM-7), read-out: MBC) | MIC (Escherichia coli; Escherichia coli CDC-162 (NDM-7), read-out: MIC) | MBC (Escherichia coli; Escherichia coli NCTC13476 (IMP-1), read-out: MBC) | MIC (Escherichia coli; Escherichia coli NCTC13476 (IMP-1), read-out: MIC)
0.5 µg/mL: MBC (Klebsiella pneumoniae; Klebsiella pneumoniae, ATCCBAA2524, Klebsiella pneumoniae ATCC BAA-2524 (OXA-48)) | MIC (Klebsiella pneumoniae; Klebsiella pneumoniae, ATCCBAA2524, Klebsiella pneumoniae ATCC BAA-2524 (OXA-48), read-out: MIC)

Cc1ncc([N+](=O)[O-])n1CCO [Metronidazole]
0.25 µg/mL: MIC90 (Fusobacterium spp.; Fusobacterium, Fusobacterium spp.) | MIC (Fusobacterium spp.; Fusobacterium, KUB No. 6693 Fusobacterium nucleatium) | MIC (Fusobacterium spp.; KUB No. 2741 Fusobacterium varium ATCC 27725) | MIC (Fusobacterium spp.; KUB No. 6702 Fusobacterium necrophorum) | MIC (Fusobacterium spp.; KUB No. 6710 Fusobacterium necrophorum)
≤ 0.12 µg/mL: MIC50 (Fusobacterium spp.; Fusobacterium spp.) | MIC (Fusobacterium spp.; Fusobacterium, KUB No. 6692 Fusobacterium sp.) | MIC (Fusobacterium spp.; Fusobacterium, KUB No. 6708 Fusobacterium necrophorun) | MIC (Fusobacterium spp.; Fusobacterium, KUB No. 6715 Fusobacterium sp.) | MIC (Fusobacterium spp.; Fusobacterium, KUB No. 6716 Fusobacterium nuncleatum) | MIC (Fusobacterium spp.; Fusobacterium, KUB No. 6719 Fusobacterium sp.) | MIC (Fusobacterium spp.; Fusobacterium, KUB No. 6725 Fusobacterium sp.) | MIC (Fusobacterium spp.; KUB No. 2742 Fusobacterium nucleatum ATCC 25586) | MIC (Fusobacterium spp.; KUB No. 6694 Fusobacterium necrophorum) | MIC (Fusobacterium spp.; KUB No. 6696 Fusobacterium necrophorum) | MIC (Fusobacterium spp.; KUB No. 6697 Fusobacterium nucleatum) | MIC (Fusobacterium spp.; KUB No. 6698 Fusobacterium nucleatum) | MIC (Fusobacterium spp.; KUB No. 6699 Fusobacterium necrophorum) | MIC (Fusobacterium spp.; KUB No. 6700 Fusobacterium nucleatum) | MIC (Fusobacterium spp.; KUB No. 6720 Fusobacterium nucleatum) | MIC (Fusobacterium spp.; KUB No. 6724 Fusobacterium nucleatum)
0.5 µg/mL: MIC (Fusobacterium spp.; KUB No. 6695 Fusobacterium necrophorum)
≤0.12 to 0.5 µg/mL: MICrange (Fusobacterium spp.; Fusobacterium spp.)
